Measurements: patent publication US20160038468A1 (priority 2013, published 2016)
Values after ≈ are worked out from the molar mass of the structure shown. Read-outs that look alike come from different tables or passages of the source.

How the values were obtained:
Format in all cases: cell-based
Finegoldia magna = experiment: Agar dilution MIC (CLSI), Finegoldia magna vaginal isolates; conditions: for Number of strains with indicated MIC: 20 samples
Gardnerella vaginalis = experiment: Agar dilution MIC (CLSI), Gardnerella vaginalis vaginal isolates; conditions: for Number of strains with indicated MIC: 100 samples
Mobiluncus spp = experiment: Agar dilution MIC (CLSI), Mobiluncus spp vaginal isolate; conditions: read-out: Minimal Inhibitory Concentration (MIC)
Peptoniphilus harei = experiment: Agar dilution MIC (CLSI), Peptoniphilus harei vaginal isolates; conditions: for Number of strains with indicated MIC: 23 samples; for MIC: read-out: Minimal Inhibitory Concentration (MIC)
[1] = tested on: Megasphaera-like bacteria; experiment: Agar dilution MIC (CLSI), Megasphaera-like bacteria vaginal isolates; conditions: for MIC: read-out: Minimal Inhibitory Concentration (MIC); for Number of strains with indicated MIC: 25 samples
[2] = Gardnerella vaginalis, # tested 107
[3] = Peptoniphilus harei, # tested 23

## CO[C@H]1/C=C/O[C@@]2(C)Oc3c(C)c(O)c4c(O)c(c5c(nc6cc(C)ccn65)c4c3C2=O)NC(=O)/C(C)=C\C=C\[C@H](C)[C@H](O)[C@@H](C)[C@@H](O)[C@@H](C)[C@H](OC(C)=O)[C@@H]1C [Rifaximin]
Finegoldia magna; MIC 8 μg/ml
  Number of strains with indicated MIC: 4
Finegoldia magna; MIC 16 μg/ml
  Number of strains with indicated MIC: 3
Finegoldia magna; MIC […]
  Number of strains with indicated MIC: 1
Finegoldia magna; number (%) of isolates, # tested 20
  Susceptible: 20 (100) μg/ml
Gardnerella vaginalis
  share of G vaginalis strains against which the agent had activity: ~90%
Gardnerella vaginalis; [2]
  MIC50: 2 µg/mL (≈ 2.54 µM)
  MIC90: > 128 µg/mL
Gardnerella vaginalis; MIC 8 μg/ml
  Number of strains with indicated MIC: 3
Gardnerella vaginalis; MIC >[…]
  Number of strains with indicated MIC: 11
Mobiluncus spp
  MIC: 0.03 µg/mL (≈ 0.0382 µM)
Peptoniphilus harei; # tested 23
  MIC Range: 3.75 to 30 ng/mL
Peptoniphilus harei; MIC 0.00375 μg/ml
  Number of strains with indicated MIC: 1
Peptoniphilus harei; MIC 0.0075 μg/ml
  Number of strains with indicated MIC: 15
Peptoniphilus harei; MIC 0.015 μg/ml
  Number of strains with indicated MIC: 6
Peptoniphilus harei; MIC 0.03 μg/ml
  Number of strains with indicated MIC: 1
Peptoniphilus harei; Peptoniphilus harei, isolate 426868V D
  MIC: 7.5 ng/mL (≈ 0.00954 µM)
Peptoniphilus harei; Peptoniphilus harei, isolate 601098V Q
  MIC: 7.5 ng/mL (≈ 0.00954 µM)
Peptoniphilus harei; Peptoniphilus harei, isolate 601203V 8
  MIC: 7.5 ng/mL (≈ 0.00954 µM)
Peptoniphilus harei; Peptoniphilus harei, isolate 601212V 15
  MIC: 7.5 ng/mL (≈ 0.00954 µM)
Peptoniphilus harei; Peptoniphilus harei, isolate 601233V R
  MIC: 30 ng/mL (≈ 0.0382 µM)
Peptoniphilus harei; Peptoniphilus harei, isolate 601248V 23
  MIC: 7.5 ng/mL (≈ 0.00954 µM)
Peptoniphilus harei; Peptoniphilus harei, isolate 601259V 11
  MIC: 15 ng/mL (≈ 0.0191 µM)
Peptoniphilus harei; Peptoniphilus harei, isolate 601289V C
  MIC: 7.5 ng/mL (≈ 0.00954 µM)
Peptoniphilus harei; Peptoniphilus harei, isolate 601293V 21
  MIC: 7.5 ng/mL (≈ 0.00954 µM)
Peptoniphilus harei; Peptoniphilus harei, isolate 601302V F1
  MIC: 15 ng/mL (≈ 0.0191 µM)
Peptoniphilus harei; Peptoniphilus harei, isolate 601311V R
  MIC: 3.75 ng/mL (≈ 0.00477 µM)
Peptoniphilus harei; Peptoniphilus harei, isolate 601326V F
  MIC: 15 ng/mL (≈ 0.0191 µM)
Peptoniphilus harei; Peptoniphilus harei, isolate 601342V F
  MIC: 7.5 ng/mL (≈ 0.00954 µM)
Peptoniphilus harei; Peptoniphilus harei, isolate 601355V D
  MIC: 15 ng/mL (≈ 0.0191 µM)
Peptoniphilus harei; Peptoniphilus harei, isolate 601365V 14
  MIC: 7.5 ng/mL (≈ 0.00954 µM)
Peptoniphilus harei; Peptoniphilus harei, isolate 601374V F
  MIC: 15 ng/mL (≈ 0.0191 µM)
Peptoniphilus harei; Peptoniphilus harei, isolate 601388V Q
  MIC: 7.5 ng/mL (≈ 0.00954 µM)
Peptoniphilus harei; Peptoniphilus harei, isolate 601399V 16
  MIC: 7.5 ng/mL (≈ 0.00954 µM)
Peptoniphilus harei; Peptoniphilus harei, isolate 601409V L
  MIC: 7.5 ng/mL (≈ 0.00954 µM)
Peptoniphilus harei; Peptoniphilus harei, isolate 601413V 16
  MIC: 7.5 ng/mL (≈ 0.00954 µM)
Peptoniphilus harei; Peptoniphilus harei, isolate 601426V D
  MIC: 7.5 ng/mL (≈ 0.00954 µM)
Peptoniphilus harei; Peptoniphilus harei, isolate 601430V 22
  MIC: 15 ng/mL (≈ 0.0191 µM)
Peptoniphilus harei; Peptoniphilus harei, isolate 601539V 25B
  MIC: 7.5 ng/mL (≈ 0.00954 µM)
Peptoniphilus harei; [3]
  MIC50: 7.5 ng/mL (≈ 0.00954 µM)
  MIC90: 0.015 µg/mL (≈ 0.0191 µM)
[1]; 427510 h, isolate 427507 H
  MIC: 0.015 µg/mL (≈ 0.0191 µM)
[1]; # tested 25
  MIC50: 0.015 µg/mL (≈ 0.0191 µM)
  MIC90: 0.015 µg/mL (≈ 0.0191 µM)
  MIC Range: 7.5 to 15 ng/mL
[1]; MIC 0.0075 μg/ml
  Number of strains with indicated MIC: 3
[1]; MIC 0.015 μg/ml
  Number of strains with indicated MIC: 22
[1]; isolate 426749 T
  MIC: 0.0075 µg/mL (≈ 0.00954 µM)
[1]; isolate 426766 Q
  MIC: 0.015 µg/mL (≈ 0.0191 µM)
[1]; isolate 426788 8a
  MIC: 0.015 µg/mL (≈ 0.0191 µM)
[1]; isolate 426788 C
  MIC: 0.015 µg/mL (≈ 0.0191 µM)
[1]; isolate 427470 10
  MIC: 0.015 µg/mL (≈ 0.0191 µM)
[1]; isolate 427490 2u
  MIC: 0.015 µg/mL (≈ 0.0191 µM)
[1]; isolate 427509 A
  MIC: 0.015 µg/mL (≈ 0.0191 µM)
[1]; isolate 427522 8
  MIC: 0.015 µg/mL (≈ 0.0191 µM)
[1]; isolate 600770 O
  MIC: 0.015 µg/mL (≈ 0.0191 µM)
[1]; isolate 600790 N
  MIC: 0.015 µg/mL (≈ 0.0191 µM)
[1]; isolate 600796 V
  MIC: 0.015 µg/mL (≈ 0.0191 µM)
[1]; isolate 600831 9
  MIC: 0.015 µg/mL (≈ 0.0191 µM)
[1]; isolate 600837 18
  MIC: 0.015 µg/mL (≈ 0.0191 µM)
[1]; isolate 600861 P
  MIC: 0.015 µg/mL (≈ 0.0191 µM)
[1]; isolate 602236 E3
  MIC: 0.007 µg/mL (≈ 0.00891 µM)
[1]; isolate 602241 D
  MIC: 0.015 µg/mL (≈ 0.0191 µM)
[1]; isolate 602241 F
  MIC: 0.015 µg/mL (≈ 0.0191 µM)
[1]; isolate 602270 A
  MIC: 0.015 µg/mL (≈ 0.0191 µM)
[1]; isolate 602282 I
  MIC: 0.015 µg/mL (≈ 0.0191 µM)
[1]; isolate 602288 16
  MIC: 0.015 µg/mL (≈ 0.0191 µM)
[1]; isolate 602302 22
  MIC: 0.015 µg/mL (≈ 0.0191 µM)
[1]; isolate 602305 I
  MIC: 0.015 µg/mL (≈ 0.0191 µM)
[1]; isolate 602324 8
  MIC: 0.0075 µg/mL (≈ 0.00954 µM)
[1]; isolate 602672 12A
  MIC: 0.015 µg/mL (≈ 0.0191 µM)
